{
  "source": "paper PMC9645390",
  "about": "“Amphiphilic stilbene derivatives attenuate the neurotoxicity of soluble Aβ42 oligomers by controlling their interactions with cell membranes” (Chemical Science, 2022)",
  "target": "T1, human serum albumin (HSA) (Homo sapiens, UniProt P02768)",
  "T1 construct": "purchased",
  "T1 sequence (P02768 25-609)": "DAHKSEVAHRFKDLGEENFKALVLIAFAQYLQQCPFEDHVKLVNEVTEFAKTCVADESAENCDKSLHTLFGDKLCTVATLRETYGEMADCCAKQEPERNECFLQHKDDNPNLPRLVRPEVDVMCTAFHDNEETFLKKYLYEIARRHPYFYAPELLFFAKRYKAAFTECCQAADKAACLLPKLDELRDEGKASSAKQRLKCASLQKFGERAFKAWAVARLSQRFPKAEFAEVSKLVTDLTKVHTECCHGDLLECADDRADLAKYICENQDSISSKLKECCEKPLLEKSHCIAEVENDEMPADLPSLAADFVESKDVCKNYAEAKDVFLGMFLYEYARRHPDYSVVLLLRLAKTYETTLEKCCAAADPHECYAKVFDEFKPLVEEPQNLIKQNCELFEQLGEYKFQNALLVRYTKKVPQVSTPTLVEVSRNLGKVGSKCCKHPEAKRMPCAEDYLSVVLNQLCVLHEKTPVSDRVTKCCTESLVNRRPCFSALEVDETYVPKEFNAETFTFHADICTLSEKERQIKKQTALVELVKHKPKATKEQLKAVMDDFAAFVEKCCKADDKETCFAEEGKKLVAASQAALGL",
  "assay": "Fluorescence turn-on with human serum albumin (selectivity)",
  "format": "binding",
  "conditions": "compound 5 µM, HSA 1 mg/mL, Aβ42 fibrils 25 µM for comparison",
  "procedure": "To investigate whether these amphiphilic compounds can interact with different Aβ species, we recorded the fluorescence intensity changes in the absence and presence of Aβ42 fibrils and oligomers, respectively, which were prepared as previously reported.[28] […] The enhanced fluorescence intensity and blue shift are possibly due to the restriction in a rotation of the aromatic rings and the changes of hydrophobicity at the Aβ binding sites. […] Comparing the ZY-17 series with the other series of compounds, we believe that the thiophene ring in the stilbene-like binding scaffold is essential for the selectively toward Aβ species, while the more hydrophobic tri-benzene rings might lead to unspecific binding to other proteins; such a design principle will be key for the development of second-generation compounds with increased Aβ-binding selectivity.\nFigure S4. Fluorescence turn-on effects of amphiphilic compounds with HAS; [compound] = 5 µM, [Aβ42 fibrils] = […]",
  "data": [
    {"smiles": "COc1cc(OC)cc(-c2ccc(/C=C/c3cc(CN4CCN(C)CCN(C)CC4)c(O)c(CN4CCN(C)CCN(C)CC4)c3)cc2)c1", "note": "[ZY-17-DT]", "values": [
      {"measurement": "fluorescence turn-on in the presence of HSA (in words)", "value": "even higher fluorescence intensity increase in the presence of HSA than for Aβ42 fibrils"}
    ]},
    {"smiles": "COc1cc(OC)cc(-c2ccc(/C=C/c3cc(CN4CCN(C)CCN(C)CC4)c(O)c(OC)c3)cc2)c1", "note": "[ZY-17-OMe]", "values": [
      {"measurement": "fluorescence turn-on in the presence of HSA (in words)", "value": "even higher fluorescence intensity increase in the presence of HSA than for Aβ42 fibrils"}
    ]}
  ]
}
